Test results: patent EP0002426B1, “Antiperspirant” (priority 1977, dated 1979)
Where “and” joins values, the source holds several entries; their conditions need not be identical. Identical values can stand only once. Like-named read-outs stand apart in the source and are kept apart here.

How the values were obtained:
[1] = system: adrenaline-induced local sweating; assay: OPT-test of sweat response after intradermal adrenaline, epidermal application of local anesthetic emulsions on the forearm; type: in vivo, volunteers; conditions: for sweat response, induced by intracutaneous administration of adrenaline: 12 volunteers, epidermal application; for number of black-coloured sweat pores (OPT-test), M1-10: mean of patients 1-10; for number of black-coloured sweat pores (OPT-test), M1-12: mean of patients 1-12
Description: (§1) The anti perspiration effect of the present invention was determined in an experimental investigation of dermal analgesia and influence upon adrenaline-induced local sweating by epidermal application of different local anesthetic formulations.
(§2) 12 healthy medical students took part in the study.
(§3) Pre-formed pads, consisting of cellulose fibres, 2 times 2 centimetres, were soaked by a standardized procedure in either an emulsion containing 5% lidocaine base + 5% prilocaine base, an emulsifying agent and water, 10% lidocaine base in the same vehicle, 10% prilocaine base in the same vehicle, or a placebo emulsion containing the emulsifying agent and water only. On one forearm of the volunteer the four different emulsions were applied under occlusive dressings consisting of an impervious tape, while on the other arm the four emulsions were applied under a non-occlusive dressing, using surgical tape (3M). A certain distance between the application areas was chosen in order to avoid any risk of interference between them.
(§4) On the arms of the volunteers 11 and 12 the emulsions were applied directly to the skin, with no cellulose pads, but with occlusive and non-occlusive dressings applied as in the other volunteers.
(§5) The application time for the pads was 60 minutes.
(§6) Immediately after removal of the pads, the square areas under the two types of dressing were marked at the edges. A line was also marked within each applied area dividing them into two identical triangles. One of these surfaces were then used by pin-prick experiments, the other for studying the sweat response.
(§7) Just under the apex of each test area triangle an intradermal wheal 0.1 ml adrenaline 1:10 000 was injected. Pain on injection was noted. The test area was then swabbed with OPT (5% orthophthaldialdehyde in xylol). After drying the OPT-applied area a plastic ring with adhesive on the back side was placed over the visible vasoconstricted area caused by the adrenaline effect, within the test triangle previously covered by the test compositions. The number of black-coloured sweat pores within the standardized diameter hole in the plastic rings was counted under a direct vision microscope.

dermal analgesia = assay: Pin-prick test of dermal analgesia after epidermal application of local anesthetic emulsions on the forearm; type: in vivo, volunteers; conditions: for Pin-prick test, M1–10: mean of patients 1-10 (out of 10 pin-pricks); for Pin-prick test, M1–12: mean of patients 1-12; for dermal analgesia, effectiveness versus placebo emulsion: under occlusion as well as under a non-occlusive bandage
Description: as §1, §2, §3, §4, §5, §6
The pin-pricking procedure was carried out with disposable dental needles. In each of the test areas 10 pin-pricks were made. 10/10 represents full analgesia, 0/10 no analgesia.

[2] = Pain on intradermal injection of adrenaline solution in the test areas; type: in vivo; conditions: 0.1 ml adrenaline 1:10 000 in the test area; all volunteers
Description: as §7
All volunteers reported pain at the intradermal injection of adrenaline solution at the placebo, the lidocaine and the prilocaine areas but not at the lidocaine-prilocaine areas.

[3] = cited from earlier work
[4] = Non-Occlusion, individual Patient No 1-10, soaked cellulose pads, 60 minutes
[5] = Non-Occlusion, individual Patient No 11, 12, emulsions applied directly to the skin, no cellulose pads
[6] = Occlusion, individual Patient No 1-10, soaked cellulose pads, 60 minutes, L—P 5%+5%, L 10%, P 10% emulsion
[7] = Occlusion, individual Patient No 11, 12, emulsions applied directly to the skin, no cellulose pads
[8] = total concentration of 10%, aqueous emulsion
[9] = Non-Occlusion, individual Patient No 1-10, pads, 60 minutes, 10/10 full analgesia, 0/10 no analgesia
[10] = Occlusion, individual Patient No 1-10, pads, 60 minutes, 10 pin-pricks, 10/10 full analgesia, 0/10 no analgesia

Row | SMILES | sweat response, induced by intracutaneous administration of adrenaline [1] | number of black-coloured sweat pores (OPT-test) [1, 4] | number of black-coloured sweat pores (OPT-test) [1, 5] | number of black-coloured sweat pores (OPT-test), M1-10 ([1]; Non-Occlusion) | number of black-coloured sweat pores (OPT-test), M1-12 ([1]; Non-Occlusion) | number of black-coloured sweat pores (OPT-test) [1, 6] | number of black-coloured sweat pores (OPT-test) [1, 7] | number of black-coloured sweat pores (OPT-test), M1-10 ([1]; Occlusion) | number of black-coloured sweat pores (OPT-test), M1-12 ([1]; Occlusion) | sweat response, effectiveness versus placebo ([1]; under non-occlusive bandage) | sweat response, effectiveness versus placebo ([1]; under occlusive bandage) | Pin-prick test (dermal analgesia; [9]) | Pin-prick test (dermal analgesia; [5]) | Pin-prick test, M1–10 (dermal analgesia; Non-Occlusion) | Pin-prick test, M1–12 (dermal analgesia; Non-Occlusion) | Pin-prick test (dermal analgesia; [10]) | Pin-prick test (dermal analgesia; [7]) | Pin-prick test, M1–10 (dermal analgesia; Occlusion) | Pin-prick test, M1–12 (dermal analgesia; Occlusion) | dermal analgesia, effectiveness versus placebo emulsion (dermal analgesia) | also measured
1 | CCCNC(C)C(=O)Nc1ccccc1C (stereo not shown) [P, 2-propylamino-N-(2-tolyl)propionamide] | partly blocked | 46 and 18 (2×) and 34 and 24 and 26 (2×) and 25 and 21 and 40 | 14 and 20 | 27.8 | 26.0 | 24 (2×) and 30 and 17 and 52 and 18 and 22 and 15 and 28 | 24 and 16 | 25.6 | 24.54 | more effective than placebo | significantly more effective than placebo | 1/10 and 0/10 (8×) and 6/10 | 2/10 and 0/10 | 0.70 | 0.75 | 2/10 and 0/10 (6×) and 10/10 and 1/10 | 7/10 and 9/10 | 1.44 | 2.64 | insignificantly more effective than the placebo emulsion | sweat response inhibition, compared among the tested formulations [1, 8]: less effective; dermal analgesia (pin-pricking), compared among the tested formulations (dermal analgesia; [8]): less effective; pain at the intradermal injection of adrenaline solution [2]: reported pain
2 | CCN(CC)CCOC(=O)c1ccc(N)cc1 [procaine] | – | – | – | – | – | – | – | – | – | – | – | – | – | – | – | – | – | – | – | – | antihydrotic effect ([3]; administered electrophoretically): possesses an antihydrotic effect; antihydrotic effect ([3]; without electrophoresis, only topically): will not give any antihydrotic effect
3 | CCN(CC)CC(=O)Nc1c(C)cccc1C [L, Diethylaminoacet-2',6'-xylidide] | partly blocked | 42 and 24 (4×) and 29 and 27 and 25 and 19 and 32 | 22 and 33 | 27.0 | 27.08 | 22 (2×) and 25 and 20 (2×) and 24 (2×) and 16 (2×) and 28 | 12 and 26 | 21.7 | 21.25 | more effective than placebo | significantly more effective than placebo | 0/10 (9×) and 1/10 | 0/10 | 0.10 | 0.08 | 0/10 (5×) and 2/10 (3×) and 5/10 and 3/10 | 8/10 and 6/10 | 1.40 | 2.33 | insignificantly more effective than the placebo emulsion | pain at the intradermal injection of adrenaline solution [2]: reported pain
